Experimental data: patent US6146615A, “Contrast agents for image enhancement in magnetic resonance imaging” (priority 1999, dated 2000)
“Also recorded” adds a separate entry of the source.

What was measured:
Muscle = experiment: T1-weighted MRI of tumor-bearing rats: percentage enhancement of muscle; assay type: in vivo, rat (inbred Copenhagen, male); conditions: 100 μmol agent/kg bw iv, muscle line below large tumor
Excerpt: (§1) A T1 -weighted MRI examination (SE 400/15; SISCO SIS 85, 2 T) of the iron complex of ligand XI, Fe-DESAC, in rats (inbred Copenhagen, male, ca. 250 g bw) with implanted prostatic tumors (Dunning R3327, MAT/Lu) in the thigh muscles has been performed.
(§2) A T1 -weighted MRI examination (SE 400/15; SISCO SIS 85, 2 T) of three of these new MR contrast agents, the Fe(III) complexes of ligands XI, XVII and XXII in rats (inbred Copenhagen, male, ca. 250 g bw) with implanted prostatic tumors (Dunning R3327, MAT/Lu) in the thigh muscles was performed.

[1] = tested on: implanted prostatic tumors (Dunning R3327, MAT/Lu); experiment: T1-weighted MRI of tumor-bearing rats: percentage enhancement of tumor; assay type: in vivo, rat (inbred Copenhagen, male)
Excerpt: as §1
Thus, differentiation of tumor from surrounding muscle was straightforward with both contrast agents.
as §2

mice = conditions: metal chloride salts in aqueous solution, mice i.p.; cited from earlier work
liver and kidney [2] = conditions: over the same time period as FIG. 1; Davies et al. 1996, U.S. Pat. No. 5,494,656; cited from earlier work
liver and kidney [3] = experiment: MR imaging experiments on healthy rats: percent enhancement of liver and kidney; assay type: in vivo, rat (female Fischer 344); conditions: 0.10 mmol/kg, tail vein, FIG. 1
Method: Animal studies were performed with a 1.5-T superconducting MR unit (Signa. GE Medical Systems) using a send-and-receive head coil containing two anesthetized female Fischer 344 rats. After a localizer image were obtained, a spin-echo pulse sequence were used with a 256×256 matrix (three signals acquired) over a 20-cm field of view with a thickness of 3 mm and a 1.5-mm intersection gap. The pulse sequence parameters were TR =300 ms and TE =20 ms. Sagittal images were collected before administration of the contrast agent, and after administration, five more images were collected. Operator defined region-of-interest (ROI) measurements were made upon the organs under study for the pre- and postcontrast images. ROI measurements were recorded for the liver and kidney. For the liver, three slices were studied and for the kidneys, a single slice through each kidney was studied.
Percent enhancement was calculated by the following equation: [formula]
Female Fischer 334 rats were used in the imaging experiments. The subjects were weighed and anesthetized with 65 mg/kg pentobarbital. The preinjection pulse sequence was performed, then the contrast agent was administered. The concentration used was 0.10 mmollkg with an injection volume of 0.5 mL used throughout, administered over a time range of approximately three minutes. […]

For `O=C([O-])CN(CCN(CC(=O)[O-])CC(=O)O)CCN(CC(=O)[O-])CC(=O)O.[Gd+3]` [Gd-DTPA, gadolinium ion chelated with the ligand diethylenetriaminepentaacetic acid], the “Percentage enhancement, muscle (large, necrotic tumor), 1 hr” value (Muscle; 1 hr post contrast) was “+10 ± 6%”, the “Percentage enhancement, muscle (large, necrotic tumor), 24 hr” value (Muscle; 24 hr post contrast) was -4 ± 2% and the “Percentage enhancement, large, necrotic tumor, 1 hr” value ([1]; 100 μmol agent/kg bw iv, 1 hr post contrast) was “+52 ± 14%”. For the same molecule, the “Percentage enhancement, large, necrotic tumor, 24 hr” value ([1]; 100 μmol agent/kg bw iv, 24 hr post contrast) was -11 ± 8%, the “enhancement of necrotic tumor tissue” value ([1]; large (almost completely necrotic) tumor, 24 hr post contrast) was “no such enhancement was found with Gd-DTPA; also recorded: no significant enhancement of tumor” and the “differentiation of tumor from surrounding muscle” value ([1]; single iv application) was “straightforward”. The “tumor enhancement, 3 hr” value ([1]; single iv application, 3 hr post contrast) was “significant tumor enhancement”.
In the case of `[Gd]` [gadolinium], the LD50 (mice) is given as 1.4 mmol/kg.
For `[Mn+2]` [manganese], the LD50 (mice) is given as 1.5 mmol/kg.
In the case of Fe(III) tris(tironate), the liver enhancement (liver and kidney [2]) is listed as ≤ 15% and the liver-specificity (liver and kidney [3]) is listed as “does not show this tissue specificity”.
In the case of iron, the LD50 (mice) is listed as 1.6 mmol/kg.
